Assay results reported in patent publication US20100160454A1, “ANTIMICROBIAL AGENTS, COMPOSITIONS AND PRODUCTS CONTAINING THE SAME, AND METHODS OF USING THE COMPOSITIONS AND PRODUCTS” (Eastman Chemical Company, priority 2008, published 2010).

How the values were obtained:
Assay in all cases: Microbiological challenge testing in BPW broth, graded subculture counts
Format in all cases: cell-based
[1] = test system: Staphylococcus aureus ATCC 25923; details: S. aureus
Summary of the method: (§1)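 Challenge substrates of BPW plus 1% dextrose containing the test material (w/v) or broth alone were inoculated to 10^5–10^6 CFU/mL. Bacteria had been precultured in dextrose TSB at 35 °C for at least 96 h. CFU/mL came from plate count × dilution factor on PCA after ≥48 h at 35 °C.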

Aeromonas sp. Wild type = test system: Aeromonas sp. Wild type
Summary of the method: as §1

[2] = test system: Escherichia coli ATCC 25922; details: E. Coli
Summary of the method: as §1

[3] = test system: Proteus vulgaris Wild type
Summary of the method: as §1

[4] = test system: Bacillus subtilis Wild type
Summary of the method: as §1

[5] = test system: Pseudomonas aeruginosa Wild type; details: P. aeruginosa
Summary of the method: as §1

For `CC(O)CO` (stereo not drawn) [PG, propylene glycol], the Grade ([1]; 0.5% (wt/vol), 3 day) was 5 (More than 10,000 colonies estimated (thus more than 100,000 CFU/mL)), the Grade ([1]; 0.5% (wt/vol), 14 day) was 4 (1000 to 10,000 colonies countable (thus 10,000 CFU/mL to 100,000 CFU/mL)) and the Grade ([1]; 0.5% (wt/vol), 30 day) was 4 (1000 to 10,000 colonies countable (thus 10,000 CFU/mL to 100,000 CFU/mL)). For the same compound, the Grade ([1]; 1.25% (wt/vol), 3 day) was 4 (1000 to 10,000 colonies countable (thus 10,000 CFU/mL to 100,000 CFU/mL)), the Grade ([1]; 1.25% (wt/vol), 14 day) was 4 (1000 to 10,000 colonies countable (thus 10,000 CFU/mL to 100,000 CFU/mL)) and the Grade ([1]; 1.25% (wt/vol), 30 day) was 4 (1000 to 10,000 colonies countable (thus 10,000 CFU/mL to 100,000 CFU/mL)). The Grade ([1]; 2.5% (wt/vol), 3 day) was 4 (1000 to 10,000 colonies countable (thus 10,000 CFU/mL to 100,000 CFU/mL)), the Grade ([1]; 2.5% (wt/vol), 14 day) was 4 (1000 to 10,000 colonies countable (thus 10,000 CFU/mL to 100,000 CFU/mL)) and the Grade ([1]; 2.5% (wt/vol), 30 day) was 4 (1000 to 10,000 colonies countable (thus 10,000 CFU/mL to 100,000 CFU/mL)). The Grade ([1]; 5.0% (wt/vol), 3 day) was 4 (1000 to 10,000 colonies countable (thus 10,000 CFU/mL to 100,000 CFU/mL)), the Grade ([1]; 5.0% (wt/vol), 14 day) was 4 (1000 to 10,000 colonies countable (thus 10,000 CFU/mL to 100,000 CFU/mL)) and the Grade ([1]; 5.0% (wt/vol), 30 day) was 4 (1000 to 10,000 colonies countable (thus 10,000 CFU/mL to 100,000 CFU/mL)). The “Aeromonas sp growth grade, 3 day” value (Aeromonas sp. Wild type; 0.5% weight/volume) was 5 (More than 10,000 colonies estimated (thus more than 100,000 CFU/mL)), the “Aeromonas sp growth grade, 14 day” value (Aeromonas sp. Wild type; 0.5% weight/volume) was 5 (More than 10,000 colonies estimated (thus more than 100,000 CFU/mL)) and the “Aeromonas sp growth grade, 30 day” value (Aeromonas sp. Wild type; 0.5% weight/volume) was 5 (More than 10,000 colonies estimated (thus more than 100,000 CFU/mL)). The “Aeromonas sp growth grade, 3 day” value (Aeromonas sp. Wild type; 1.25% weight/volume) was 5 (More than 10,000 colonies estimated (thus more than 100,000 CFU/mL)), the “Aeromonas sp growth grade, 14 day” value (Aeromonas sp. Wild type; 1.25% weight/volume) was 5 (More than 10,000 colonies estimated (thus more than 100,000 CFU/mL)) and the “Aeromonas sp growth grade, 30 day” value (Aeromonas sp. Wild type; 1.25% weight/volume) was 5 (More than 10,000 colonies estimated (thus more than 100,000 CFU/mL)). For the same compound, the “Aeromonas sp growth grade, 3 day” value (Aeromonas sp. Wild type; 2.5% weight/volume) was 5 (More than 10,000 colonies estimated (thus more than 100,000 CFU/mL)), the “Aeromonas sp growth grade, 14 day” value (Aeromonas sp. Wild type; 2.5% weight/volume) was 5 (More than 10,000 colonies estimated (thus more than 100,000 CFU/mL)) and the “Aeromonas sp growth grade, 30 day” value (Aeromonas sp. Wild type; 2.5% weight/volume) was 5 (More than 10,000 colonies estimated (thus more than 100,000 CFU/mL)). The “Aeromonas sp growth grade, 3 day” value (Aeromonas sp. Wild type; 5.0% weight/volume) was 5 (More than 10,000 colonies estimated (thus more than 100,000 CFU/mL)), the “Aeromonas sp growth grade, 14 day” value (Aeromonas sp. Wild type; 5.0% weight/volume) was 4 (1000 to 10,000 colonies countable (thus 10,000 CFU/mL to 100,000 CFU/mL)) and the “Aeromonas sp growth grade, 30 day” value (Aeromonas sp. Wild type; 5.0% weight/volume) was 4 (1000 to 10,000 colonies countable (thus 10,000 CFU/mL to 100,000 CFU/mL)). The Grade ([2]; 0.5% (wt/vol), 3 day) was 5 (More than 10,000 colonies estimated (thus more than 100,000 CFU/mL)), the Grade ([2]; 0.5% (wt/vol), 14 day) was 5 (More than 10,000 colonies estimated (thus more than 100,000 CFU/mL)) and the Grade ([2]; 0.5% (wt/vol), 30 day) was 5 (More than 10,000 colonies estimated (thus more than 100,000 CFU/mL)). The Grade ([2]; 1.25% (wt/vol), 3 day) was 5 (More than 10,000 colonies estimated (thus more than 100,000 CFU/mL)), the Grade ([2]; 1.25% (wt/vol), 14 day) was 4 (1000 to 10,000 colonies countable (thus 10,000 CFU/mL to 100,000 CFU/mL)) and the Grade ([2]; 1.25% (wt/vol), 30 day) was 4 (1000 to 10,000 colonies countable (thus 10,000 CFU/mL to 100,000 CFU/mL)). For the same compound, the Grade ([2]; 2.5% (wt/vol), 3 day) was 5 (More than 10,000 colonies estimated (thus more than 100,000 CFU/mL)), the Grade ([2]; 2.5% (wt/vol), 14 day) was 4 (1000 to 10,000 colonies countable (thus 10,000 CFU/mL to 100,000 CFU/mL)) and the Grade ([2]; 2.5% (wt/vol), 30 day) was 4 (1000 to 10,000 colonies countable (thus 10,000 CFU/mL to 100,000 CFU/mL)). For the same compound, the Grade ([2]; 5.0% (wt/vol), 3 day) was 4 (1000 to 10,000 colonies countable (thus 10,000 CFU/mL to 100,000 CFU/mL)), the Grade ([2]; 5.0% (wt/vol), 14 day) was 4 (1000 to 10,000 colonies countable (thus 10,000 CFU/mL to 100,000 CFU/mL)) and the Grade ([2]; 5.0% (wt/vol), 30 day) was 4 (1000 to 10,000 colonies countable (thus 10,000 CFU/mL to 100,000 CFU/mL)). The “P. vulgaris growth grade, 3 day” value ([3]; 0.5% weight/volume) was 4 (1000 to 10,000 colonies countable (thus 10,000 CFU/mL to 100,000 CFU/mL)), the “P. vulgaris growth grade, 13 day” value ([3]; 0.5% weight/volume) was 4 (1000 to 10,000 colonies countable (thus 10,000 CFU/mL to 100,000 CFU/mL)) and the “P. vulgaris growth grade, 30 day” value ([3]; 0.5% weight/volume) was 4 (1000 to 10,000 colonies countable (thus 10,000 CFU/mL to 100,000 CFU/mL)). The “P. vulgaris growth grade, 3 day” value ([3]; 1.25% weight/volume) was 4 (1000 to 10,000 colonies countable (thus 10,000 CFU/mL to 100,000 CFU/mL)), the “P. vulgaris growth grade, 13 day” value ([3]; 1.25% weight/volume) was 4 (1000 to 10,000 colonies countable (thus 10,000 CFU/mL to 100,000 CFU/mL)) and the “P. vulgaris growth grade, 30 day” value ([3]; 1.25% weight/volume) was 4 (1000 to 10,000 colonies countable (thus 10,000 CFU/mL to 100,000 CFU/mL)). For the same compound, the “P. vulgaris growth grade, 3 day” value ([3]; 2.5% weight/volume) was 4 (1000 to 10,000 colonies countable (thus 10,000 CFU/mL to 100,000 CFU/mL)), the “P. vulgaris growth grade, 13 day” value ([3]; 2.5% weight/volume) was 4 (1000 to 10,000 colonies countable (thus 10,000 CFU/mL to 100,000 CFU/mL)) and the “P. vulgaris growth grade, 30 day” value ([3]; 2.5% weight/volume) was 4 (1000 to 10,000 colonies countable (thus 10,000 CFU/mL to 100,000 CFU/mL)). For the same compound, the “P. vulgaris growth grade, 3 day” value ([3]; 5.0% weight/volume) was 4 (1000 to 10,000 colonies countable (thus 10,000 CFU/mL to 100,000 CFU/mL)), the “P. vulgaris growth grade, 13 day” value ([3]; 5.0% weight/volume) was 4 (1000 to 10,000 colonies countable (thus 10,000 CFU/mL to 100,000 CFU/mL)) and the “P. vulgaris growth grade, 30 day” value ([3]; 5.0% weight/volume) was 4 (1000 to 10,000 colonies countable (thus 10,000 CFU/mL to 100,000 CFU/mL)). For the same compound, the “B. subtillis growth grade, 3 day” value ([4]; 0.5% weight/volume) was 5 (More than 10,000 colonies estimated (thus more than 100,000 CFU/mL)), the “B. subtillis growth grade, 14 day” value ([4]; 0.5% weight/volume) was 5 (More than 10,000 colonies estimated (thus more than 100,000 CFU/mL)) and the “B. subtillis growth grade, 30 day” value ([4]; 0.5% weight/volume) was 5 (More than 10,000 colonies estimated (thus more than 100,000 CFU/mL)). For the same compound, the “B. subtillis growth grade, 3 day” value ([4]; 1.25% weight/volume) was 5 (More than 10,000 colonies estimated (thus more than 100,000 CFU/mL)), the “B. subtillis growth grade, 14 day” value ([4]; 1.25% weight/volume) was 4 (1000 to 10,000 colonies countable (thus 10,000 CFU/mL to 100,000 CFU/mL)) and the “B. subtillis growth grade, 30 day” value ([4]; 1.25% weight/volume) was 4 (1000 to 10,000 colonies countable (thus 10,000 CFU/mL to 100,000 CFU/mL)). The “B. subtillis growth grade, 3 day” value ([4]; 2.5% weight/volume) was 5 (More than 10,000 colonies estimated (thus more than 100,000 CFU/mL)), the “B. subtillis growth grade, 14 day” value ([4]; 2.5% weight/volume) was 4 (1000 to 10,000 colonies countable (thus 10,000 CFU/mL to 100,000 CFU/mL)) and the “B. subtillis growth grade, 30 day” value ([4]; 2.5% weight/volume) was 4 (1000 to 10,000 colonies countable (thus 10,000 CFU/mL to 100,000 CFU/mL)). The “B. subtillis growth grade, 3 day” value ([4]; 5.0% weight/volume) was 5 (More than 10,000 colonies estimated (thus more than 100,000 CFU/mL)), the “B. subtillis growth grade, 14 day” value ([4]; 5.0% weight/volume) was 4 (1000 to 10,000 colonies countable (thus 10,000 CFU/mL to 100,000 CFU/mL)) and the “B. subtillis growth grade, 30 day” value ([4]; 5.0% weight/volume) was 4 (1000 to 10,000 colonies countable (thus 10,000 CFU/mL to 100,000 CFU/mL)). The Grade ([5]; 0.5% (wt/vol), 3 day) was 4 (1000 to 10,000 colonies countable (thus 10,000 CFU/mL to 100,000 CFU/mL)), the Grade ([5]; 0.5% (wt/vol), 13 day) was 4 (1000 to 10,000 colonies countable (thus 10,000 CFU/mL to 100,000 CFU/mL)) and the Grade ([5]; 0.5% (wt/vol), 30 day) was 5 (More than 10,000 colonies estimated (thus more than 100,000 CFU/mL)). The Grade ([5]; 1.25% (wt/vol), 3 day) was 4 (1000 to 10,000 colonies countable (thus 10,000 CFU/mL to 100,000 CFU/mL)), the Grade ([5]; 1.25% (wt/vol), 13 day) was 4 (1000 to 10,000 colonies countable (thus 10,000 CFU/mL to 100,000 CFU/mL)) and the Grade ([5]; 1.25% (wt/vol), 30 day) was 4 (1000 to 10,000 colonies countable (thus 10,000 CFU/mL to 100,000 CFU/mL)). The Grade ([5]; 2.5% (wt/vol), 3 day) was 4 (1000 to 10,000 colonies countable (thus 10,000 CFU/mL to 100,000 CFU/mL)), the Grade ([5]; 2.5% (wt/vol), 13 day) was 4 (1000 to 10,000 colonies countable (thus 10,000 CFU/mL to 100,000 CFU/mL)) and the Grade ([5]; 2.5% (wt/vol), 30 day) was 4 (1000 to 10,000 colonies countable (thus 10,000 CFU/mL to 100,000 CFU/mL)). For the same compound, the Grade ([5]; 5.0% (wt/vol), 3 day) was 4 (1000 to 10,000 colonies countable (thus 10,000 CFU/mL to 100,000 CFU/mL)), the Grade ([5]; 5.0% (wt/vol), 13 day) was 4 (1000 to 10,000 colonies countable (thus 10,000 CFU/mL to 100,000 CFU/mL)) and the Grade ([5]; 5.0% (wt/vol), 30 day) was 4 (1000 to 10,000 colonies countable (thus 10,000 CFU/mL to 100,000 CFU/mL)).
